According to patent US20060069132A1, “Azolecarboxamide herbicides” (priority 2004, published 2006):

Assays:
barnyardgrass [1] = assay: Test A pre-/postemergence herbicide test; type: in vivo, Echinochloa crus-galli
Procedure, shortened: (§1)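 Both application timings were run together: directed soil spray over freshly planted seeds in sandy loam, and runoff spray onto 2–10 cm seedlings. Evaluation after ~10 days in greenhouse used a 0–100 visual scale versus untreated controls.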

large crabgrass [2] = assay: Test A pre-/postemergence herbicide test; type: in vivo, Digitaria sanguinalis
Procedure, shortened: as §1

giant foxtail [3] = assay: Test A pre-/postemergence herbicide test; type: in vivo, Setaria faberi
Procedure, shortened: as §1

morningglory [4] = assay: Test A pre-/postemergence herbicide test; type: in vivo, Ipomoea spp.
Procedure, shortened: as §1

redroot pigweed = assay: Test A pre-/postemergence herbicide test; type: in vivo, Amaranthus retroflexus
Procedure, shortened: as §1

velvetleaf [5] = assay: Test A pre-/postemergence herbicide test; type: in vivo, Abutilon theophrasti
Procedure, shortened: as §1

barnyardgrass [6] = assay: Test B pre-/postemergence herbicide test; type: in vivo, Echinochloa crus-galli; details: for Barnyardgrass plant response rating: postemergence
Procedure, shortened: (§2)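 Visual rating, 0 (no effect) to 100 (complete control), versus untreated controls after 13–15 d in greenhouse. Pre- and postemergence applications (postemergence plants 2–18 cm, 1–4 leaves); flooded paddy arm at 2-leaf stage. Compounds in non-phytotoxic solvent plus surfactant.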

Surinam grass = assay: Test B pre-/postemergence herbicide test; type: in vivo, Urochloa decumbens; details: for Surinam Grass plant response rating: postemergence
Procedure, shortened: (§3)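 Response was scored visually 13 to 15 days after treatment against untreated greenhouse controls, 0 meaning no effect and 100 complete control. Formulations (solvent mixture plus surfactant) went onto soil after planting, onto foliage of 1- to 4-leaf plants, and onto 2-leaf plants in a flooded paddy set including rice and barnyardgrass.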

cocklebur = assay: Test B pre-/postemergence herbicide test; type: in vivo, Xanthium strumarium; details: for Cocklebur plant response rating: postemergence
Procedure, shortened: as §2

corn = assay: Test B pre-/postemergence herbicide test; type: in vivo, Zea mays; details: for Corn plant response rating: postemergence
Procedure, shortened: as §3

large crabgrass [7] = assay: Test B pre-/postemergence herbicide test; type: in vivo, Digitaria sanguinalis; details: for Crabgrass, Large plant response rating: postemergence
Procedure, shortened: as §3

giant foxtail [8] = assay: Test B pre-/postemergence herbicide test; type: in vivo, Setaria faberi; details: for Foxtail, Giant plant response rating: postemergence
Procedure, shortened: as §3

lambsquarters = assay: Test B pre-/postemergence herbicide test; type: in vivo, Chenopodium album; details: for Lambsquarters plant response rating: postemergence
Procedure, shortened: as §3

morningglory [9] = assay: Test B pre-/postemergence herbicide test; type: in vivo, Ipomoea coccinea; details: for Morningglory plant response rating: postemergence
Procedure, shortened: as §2

pigweed = assay: Test B pre-/postemergence herbicide test; type: in vivo, Amaranthus retroflexus; details: for Pigweed plant response rating: postemergence
Procedure, shortened: as §3

rice [10] = assay: Test B pre-/postemergence herbicide test; type: in vivo, Oryza sativa; details: 0 = no effect, 100 = complete control, preemergence
Procedure, shortened: as §3

velvetleaf [11] = assay: Test B pre-/postemergence herbicide test; type: in vivo, Abutilon theophrasti; details: for Velvetleaf plant response rating: postemergence
Procedure, shortened: as §3

blackgrass = assay: Test B postemergence herbicide test; type: in vivo, Alopecurus myosuroides; details: postemergence
Procedure, shortened: (§4)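 Visual ratings, 0 (no effect) to 100 (complete control), made versus controls after 13–15 d greenhouse. Paddy plants treated at 2-leaf stage; postemergence plants at 1- to 4-leaf stage, 2–18 cm tall.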

wheat = assay: Test B postemergence herbicide test; type: in vivo, Triticum aestivum; parameters: key to Wheat plant response rating: 0 = no effect, 100 = complete control; details: postemergence
Procedure, shortened: (§5)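 After treating 2-leaf paddy plants or 2–18 cm postemergence plants (1 to 4 leaves) with formulated chemical, researchers kept them in a greenhouse for 13–15 days. Effects were judged visually versus controls: 0 indicates none, 100 total control.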

wild oat = assay: Test B postemergence herbicide test; type: in vivo, Avena fatua; details: postemergence
Procedure, shortened: as §5

rice [12] = assay: Test B flooded paddy test; type: in vivo, Oryza sativa; details: 1000 g ai/ha, scale 0 to 100 (0 no effect, 100 complete control)
Procedure, shortened: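 Postemergence plants were sprayed with formulated test chemicals at 2 to 18 cm height (1- to 4-leaf stage); paddy species were grown to the 2-leaf stage. After 13 to 15 days in a greenhouse, injury was rated visually against untreated controls on a 0–100 scale (0 = no effect, 100 = complete control).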

[13] = system: small flower umbrella sedge; assay: Test B flooded paddy test; type: in vivo, Cyperus difformis; details: 1000 g ai/ha, scale 0 to 100 (0 no effect, 100 complete control)
Procedure, shortened: as §4

ducksalad = assay: Test B flooded paddy test; type: in vivo, Heteranthera limosa; details: 1000 g ai/ha, scale 0 to 100 (0 no effect, 100 complete control)
Procedure, shortened: as §4

barnyardgrass [14] = assay: Test B flooded paddy test; type: in vivo, Echinochloa crus-galli; details: 1000 g ai/ha, scale 0 to 100 (0 no effect, 100 complete control)
Procedure, shortened: as §4

[15] = Postemergence, 500 g ai/ha, 0 to 100 scale, 0 no effect, 100 complete control
[16] = Postemergence, 2000 g ai/ha, 0 to 100 scale, 0 no effect, 100 complete control
[17] = Preemergence, 2000 g ai/ha, visual rating, 0 to 100 scale (0 no effect, 100 complete control)
[18] = preemergence, 500 g ai/ha, visual injury, 0 to 100 scale (0 no effect, 100 complete control)
[19] = 125 g ai/ha, 0 = no effect, 100 = complete control, preemergence
[20] = 500 g ai/ha, visual rating, 0 = no effect, 100 = complete control, preemergence
[21] = 125 g ai/ha, visual rating, scale 0 (no effect) to 100 (complete control)
[22] = 500 g ai/ha, scale 0 to 100, 0 is no effect, 100 is complete control

CCn1nc(C(C)(C)C)cc1C(=O)Nc1cc(C(N)=O)ccc1F [Compound 271]
30: Plant response rating, Barnyardgrass (barnyardgrass [1]; [16]) | Plant response rating, Morningglory (morningglory [4]; [16]) | Wheat plant response rating (wheat; [21]) | Wheat plant response rating (wheat; [22]) | Oat, Wild plant response rating (wild oat; [22])
0: Crabgrass, Large plant response rating (large crabgrass [2]; [18]) | Foxtail, Giant plant response rating (giant foxtail [3]; [18]) | Morningglory plant response rating (morningglory [4]; [17]) | Morningglory plant response rating (morningglory [4]; [18]) | Velvetleaf plant response rating (velvetleaf [5]; [18]) | Barnyardgrass plant response rating (0 to 100 scale) (barnyardgrass [6]; [19]) | Plant response rating, Barnyardgrass (barnyardgrass [6]; [20]) | Barnyardgrass plant response rating (barnyardgrass [6]; [21]) | Barnyardgrass plant response rating (barnyardgrass [6]; [22]) | Surinam Grass plant response rating (0 to 100 scale) (Surinam grass; [19]) | Plant response rating, Surinam Grass (Surinam grass; [20]) | Surinam Grass plant response rating (Surinam grass; [21]) | Surinam Grass plant response rating (Surinam grass; [22]) | Cocklebur plant response rating (0 to 100 scale) (cocklebur; [19]) | Plant response rating, Cocklebur (cocklebur; [20]) | Cocklebur plant response rating (cocklebur; [21]) | Cocklebur plant response rating (cocklebur; [22]) | Corn plant response rating (0 to 100 scale) (corn; [19]) | Corn plant response rating (corn; [21]) | Crabgrass, Large plant response rating (0 to 100 scale) (large crabgrass [7]; [19]) | Plant response rating, Crabgrass, Large (large crabgrass [7]; [20]) | Crabgrass, Large plant response rating (large crabgrass [7]; [21]) | Crabgrass, Large plant response rating (large crabgrass [7]; [22]) | Foxtail, Giant plant response rating (0 to 100 scale) (giant foxtail [8]; [19]) | Plant response rating, Foxtail, Giant (giant foxtail [8]; [20]) | Foxtail, Giant plant response rating (giant foxtail [8]; [21]) | Foxtail, Giant plant response rating (giant foxtail [8]; [22]) | Lambsquarters plant response rating (0 to 100 scale) (lambsquarters; [19]) | Morningglory plant response rating (0 to 100 scale) (morningglory [9]; [19]) | Plant response rating, Morningglory (morningglory [9]; [20]) | Morningglory plant response rating (morningglory [9]; [21]) | Morningglory plant response rating (morningglory [9]; [22]) | Pigweed plant response rating (0 to 100 scale) (pigweed; [19]) | Rice plant response rating (0 to 100 scale) (rice [10]; 125 g ai/ha) | Plant response rating, Rice (rice [10]; 500 g ai/ha, visual rating) | Velvetleaf plant response rating (0 to 100 scale) (velvetleaf [11]; [19]) | Plant response rating, Velvetleaf (velvetleaf [11]; [20]) | Velvetleaf plant response rating (velvetleaf [11]; [21]) | Velvetleaf plant response rating (velvetleaf [11]; [22]) | Barnyardgrass plant response rating (barnyardgrass [14])
90: Plant response rating, Pigweed (redroot pigweed; [16])
5: Barnyardgrass plant response rating (barnyardgrass [1]; [18]) | Velvetleaf plant response rating (velvetleaf [5]; [17])
50: Pigweed plant response rating (pigweed; [21])
10: Barnyardgrass plant response rating (barnyardgrass [1]; [15]) | Crabgrass, Large plant response rating (large crabgrass [2]; [15]) | Plant response rating, Crabgrass, Large (large crabgrass [2]; [16]) | Foxtail, Giant plant response rating (giant foxtail [3]; [15]) | Morningglory plant response rating (morningglory [4]; [15]) | Velvetleaf plant response rating (velvetleaf [5]; [15]) | Plant response rating, Corn (corn; [20]) | Lambsquarters plant response rating (lambsquarters; [21]) | Blackgrass plant response rating (blackgrass; [21])
70: Foxtail, Giant plant response rating (giant foxtail [3]; [17])
80: Pigweed plant response rating (pigweed; [22])
75: Barnyardgrass plant response rating (barnyardgrass [1]; [17])
45: Pigweed plant response rating (redroot pigweed; [15])
60: Pigweed plant response rating (redroot pigweed; [17]) | Pigweed plant response rating (redroot pigweed; [18]) | Plant response rating, Lambsquarters (lambsquarters; [20]) | Lambsquarters plant response rating (lambsquarters; [22])
40: Plant response rating, Velvetleaf (velvetleaf [5]; [16]) | Sedge, Umbrella plant response rating [13] | Ducksalad plant response rating (ducksalad)
20: Plant response rating, Foxtail, Giant (giant foxtail [3]; [16]) | Corn plant response rating (corn; [22]) | Plant response rating, Pigweed (pigweed; [20]) | Blackgrass plant response rating (blackgrass; [22]) | Oat, Wild plant response rating (wild oat; [21]) | Rice plant response rating (rice [12])
15: Crabgrass, Large plant response rating (large crabgrass [2]; [17])
